Test results: patent publication US7875607B2, “7,8-bicycloakyl-chroman derivatives” (Ampere Life Sciences, Inc., priority 2004, dated 2011)

Columns and labels:
[1] = tested on: LTB4 production in heparinized whole blood; assay: Inhibition of LTB4 production in blood; type: cell-based, rat or mouse; conditions: 20 μM A23187, read-out: EC50, protection against LTB4
Protocol: The blood was collected in heparinized tubes or syringes to prevent clotting. Heparin was at 20 USP U/ml. About 3-5 ml of blood was collected per rat and about 0.5-0.75 ml per mouse. This assay required 200 μl/data point, therefore a 96 well plate requires 20 ml.
The Calcium ionophore A23187 was prepared as a 10 mM stock solution in DMSO and the test agent is prepared in DMSO so that <1 μl DMSO will be added to the well
200 μl blood per well were added in a round bottom 96 well clear plastic 96 well plate followed by the test agent. After 10 minutes incubation at 37° C., 5 μl of Calcium ionophore A23187 for a final concentration of 20 μM were added and mixed, and further incubated for 30 min. After 1000×g centrifugation to pellet blood cells, 20 μl plasma was carefully removed.
20 μl plasma were added to 80 μl methanol to precipitate protein and mixed. This was further incubated 10 min. at room temperature and centrifuged at 1000×g to pellet protein.
Following manufacturer's instructions, the commercially available EIA kit was used to subsequently measure the LTB4 production in the samples. The LTB4 levels produced in the vehicle control sample were then compared to those in which the test compound had been added. From this a percent inhibition of LTB4 production by each concentration of test compound was calculated and the IC50 for inhibition of LTB4 production for each test compound was determined.

[2] = tested on: LTB4 release from MPRO cell line; assay: LTB4-cell assay; type: cell-based; conditions: Mus musculus; differentiated MPRO cells, 1 μM A23187, 1 hour; read-out: EC50, inhibition of LTB4
Protocol: This procedure was used for measuring the release of the leukotriene LTB4 from a neutrophil cell line using a competitive ELISA technique.
A mouse promyelocytic cell line (MPRO) was used in this assay. These cells are committed immature neutrophils that can be differentiated into mature neutrophils by treatment with 10 μM all-trans retinoic acid for 72 hours
Following 72 hours of differentiation, cells were stimulated with 1 μM of a calcium ionophore (A23187) in the presence or absence of test compound or vehicle for 1 hour at 37° C. After this time, supernatant was removed from the cells and the LTB4 levels were determined following manufacturer's instructions, using a Leukotriene B4 EIA kit from Cayman (Cat # 520111)
The negative controls were media samples from differentiated but unstimulated cells.
The compounds were screened at 5 concentrations in quadruplicate starting at 10 μM

[3] = tested on: dopaminergic neuronal cell line; assay: High glutamate-induced oxidative stress assay (HGOS); type: cell-based; conditions: Mus musculus; 30 mM glutamate, 16 hrs; read-out: EC50, protection against HGOS cell injury and cell death
Source text: Protection against redox stress can be further evaluated in cell culture using high glutamate induced oxidative stress (HGOS) in mouse dopaminergic cell lines. The cytotoxic effect of glutamate is not due to excitotoxicity, as this cell line is devoid of inotropic glutamate receptors. Rather, the glutamate-induced toxicity of dopaminergic cells is associated with an inhibition of cystine transport which subsequently leads to depletion of intracellular glutathione (GSH) levels (Murphy T. H., et al. Neuron 2, 1547-1558, 1989), activation of neuronal 12-lipoxygenase (Li, Y. et al., Neuron 19, 453-463, 1997), increased ROS production (Tan S. et al., J. Cell Biol. 141, 1423-1432, 1998) and elevated intracellular Ca^2+ (Li, Y. et al., see supra). Some molecules were measured for their ability to protect cells against glutamate-induced stress and the assay is detailed in Examples.
This procedure was used to induce high glutamate-induced oxidative stress (HGOS) in a dopaminergic neuronal cell line. Using this assay the potency and efficacy of test articles against HGOS neuronal cell injury and cell death was established in a high throughput manner.
The cells were seeded into 96-well plates at a density of 2000 per well and left to grow for 72 hours in a 33° C. incubator with 5% CO2 in air atmosphere. The passage number of the cells for each assay experiment were no later than p11 in order to minimize experimental variation.
All compounds were dissolved in DMEM-No Glu containing 1 mM glucose, 30 mM glutamate and 1×Pen/Strep. DMEM-No Glu with 1 mM glucose and 1×P/S was used as the negative control, DMEM-No Glucose with 1 mM glucose, […] was used as a positive control and 100 μM Glutathione was added to the positive control as a standard. All of the procedures for this involving the making and dilution of compounds were performed using aseptic conditions and with minimal light.
The plates were removed from the incubator and examined under the microscope for morphological appearance and density. Using an aseptic technique and an 8-channel aspirator the media was carefully removed from the cells and replaced with 200 μl of 1×HBSS. This was done as quickly as possible to prevent the cells drying out. The plates were then placed in the humidified 37° C. incubators of the Biomek 2000 Side Loader. Four plates were washed at a time so as to minimize the time that the cells were sitting in 1×HBSS prior to addition of the compound test solution.
The Beckman Biomek workstations were used to load the compounds and controls from the mother plates onto the cell plates that were prewashed with HBSS under sterile conditions. The plates were incubated in the upper HTS incubator at 37° C. in 5% CO2 for exactly 16 hrs. The following day, using the Beckman Biomek workstations, the plates were removed from the incubator. Using Cell Tracker Addition, the compounds were removed from the plates, washed once with […] of pre-warmed 1×HBSS and then 100 μL of 5 μM Cell Tracker Green was added to each well. The plates were incubated at 37° C. for 30 min to allow the dye to enter the cell and be cleaved by the esterases. After washing the cells twice with prewarmed 1×HBSS, the plates were read with the 485 excitation; 538 emission filter pair on a Fluoroskan.

[4] = target: T1, porcine leukocyte 12/15-lipoxygenase (Sus scrofa, UniProt P16469); assay: 12/15-Lipoxygenase enzyme assay; type: biochemical; conditions: 70 μM arachidonic acid, pH 7.4; read-out: IC50, inhibition of 12/15-Lipoxygenase
T1 sequence (P16469 1-663): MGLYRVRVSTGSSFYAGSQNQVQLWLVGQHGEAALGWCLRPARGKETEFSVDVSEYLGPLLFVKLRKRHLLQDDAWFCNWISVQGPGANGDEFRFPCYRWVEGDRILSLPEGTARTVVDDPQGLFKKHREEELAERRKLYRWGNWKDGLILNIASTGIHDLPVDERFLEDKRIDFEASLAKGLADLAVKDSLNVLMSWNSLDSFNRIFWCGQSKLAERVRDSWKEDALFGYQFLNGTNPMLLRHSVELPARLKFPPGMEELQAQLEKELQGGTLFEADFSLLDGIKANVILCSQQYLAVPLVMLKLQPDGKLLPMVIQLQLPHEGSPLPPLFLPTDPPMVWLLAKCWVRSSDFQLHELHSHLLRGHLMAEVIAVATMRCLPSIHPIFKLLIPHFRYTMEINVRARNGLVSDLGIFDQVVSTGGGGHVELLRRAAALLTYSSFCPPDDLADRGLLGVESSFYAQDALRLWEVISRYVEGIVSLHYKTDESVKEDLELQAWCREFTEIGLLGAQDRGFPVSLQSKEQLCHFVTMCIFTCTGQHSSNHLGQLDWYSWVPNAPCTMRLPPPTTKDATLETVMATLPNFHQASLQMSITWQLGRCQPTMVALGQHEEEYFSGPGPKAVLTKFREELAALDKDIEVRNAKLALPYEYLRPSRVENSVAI
Protocol: This procedure was used for measuring the enzymatic activity of porcine leukocyte 12/15-lipoxygenase using a calorimetric method based on the ferric oxidation of xylenol orange.
(§1) Porcine Leukocyte 12/15-lipoxygenase (Cayman Cat # 60300) was used in this assay. Test compound and/or vehicle was added to 1.3U 12/15-lipoxygenase in 50 mM Tris-HCl buffer, pH 7.4. The reaction was initiated by addition of 70 μM arachidonic acid in Tris-HCl buffer, pH 7.4, and terminated after a 10 minute incubation at room temperature by addition of FOX reagent (25 mM sulphuric acid, 100 μM xylenol orange, 100 μM iron (II) sulphate, methanol:water 9:1). The yellow color of acidified xylenol orange was converted to a blue color by the lipid hydroperoxide-mediated oxidation of Fe^2+ ions and the interaction of the resulting Fe^3+ ions with the dye. The complex was allowed to form during a 1 hour incubation at room temperature with shaking. Absorbance of the Fe^3+ complex was then measured at […] using a spectrophotometer.
(§2) Negative controls contained enzyme during the incubation step but substrate was not added until after the FOX reagent.
Compounds are screened at 5 concentrations in triplicate starting at 10 μM

[5] = target: T2, human recombinant 5-lipoxygenase (Homo sapiens, UniProt P09917); assay: 5-Lipoxygenase enzyme assay; type: biochemical; conditions: 70 μM arachidonic acid, pH 7.4
T2 construct: purchased Cayman 60402
T2 sequence (P09917 1-674): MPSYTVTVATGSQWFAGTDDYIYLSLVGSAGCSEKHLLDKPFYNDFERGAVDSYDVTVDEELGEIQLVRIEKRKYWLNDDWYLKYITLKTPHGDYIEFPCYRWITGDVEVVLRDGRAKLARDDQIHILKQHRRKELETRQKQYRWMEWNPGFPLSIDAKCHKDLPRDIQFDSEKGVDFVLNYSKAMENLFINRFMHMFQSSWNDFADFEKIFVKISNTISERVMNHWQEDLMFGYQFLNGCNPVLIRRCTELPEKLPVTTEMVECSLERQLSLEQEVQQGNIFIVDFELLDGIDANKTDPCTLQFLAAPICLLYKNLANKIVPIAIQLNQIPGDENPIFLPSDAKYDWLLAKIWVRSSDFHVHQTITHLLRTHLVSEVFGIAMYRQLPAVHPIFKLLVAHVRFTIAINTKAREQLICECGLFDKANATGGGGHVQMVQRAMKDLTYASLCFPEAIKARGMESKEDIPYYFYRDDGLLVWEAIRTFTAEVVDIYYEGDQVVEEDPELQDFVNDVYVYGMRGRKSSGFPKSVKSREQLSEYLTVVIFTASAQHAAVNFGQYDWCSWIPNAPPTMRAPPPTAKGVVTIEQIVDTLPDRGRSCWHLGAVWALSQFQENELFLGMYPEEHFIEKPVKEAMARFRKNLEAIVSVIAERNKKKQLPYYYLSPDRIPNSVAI
Protocol: This procedure was used for measuring the enzymatic activity of human recombinant 5-lipoxygenase using a […] method based on the ferric oxidation of xylenol orange.
as §1, with “Human recombinant 5-lipoxygenase” for “Porcine Leukocyte 12/15-lipoxygenase”, “60402)” for “60300)”, “The test” for “Test”, “0.5U 5-lipoxygenase” for “1.3U 12/15-lipoxygenase”
as §2
Compounds were screened at 5 concentrations in triplicate starting at 10 μM

Row | Structure (SMILES) | EC50 [1] [µM] | EC50 [2] [µM] | EC50 [3] [µM] | IC50 [4] [µM] | IC50 [5] [µM]
1 | CC1(c2cccs2)CCc2cc(O)c3c(c2O1)C1CCC3C1 (stereo not drawn) [2-methyl-2-thiophen-2-yl-3,4,7,8,9,10-hexahydro-7,10-methano-2H-benzo[h]chromen-6-ol] | ≤ 10 | ≤ 5 | ≤ 1 | ≤ 10 | –
2 | Cc1c(O)c2c(c3c1CCC(C)(C)O3)C1CCC2CC1 [2,2,5-Trimethyl-3,4,7,8,9,10-hexahydro-7,10-ethano-2H-benzo[h]chromen-6-ol] | – | ≤ 5 | – | ≤ 10 | –
3 | CC1(C)CCc2cc(O)c3c(c2O1)C1CCC3C1 (stereo not drawn) [2,2-Dimethyl-3,4,7,8,9,10-hexahydro-7,10-methano-2H-benzo[h]chromen-6-ol] | ≤ 10 | ≤ 5 | – | ≤ 10 | ≤ 5
4 | CC1(c2nccs2)CCc2cc(O)c3c(c2O1)C1CCC3C1 (stereo not drawn) [2-Methyl-2-thiazol-2-yl-3,4,7,8,9,10-hexahydro-7,10-methano-2H-benzo[h]chromen-6-ol] | – | ≤ 5 | – | ≤ 10 | –
5 | CC1(CCCSc2ccncc2)CCc2cc(O)c3c(c2O1)C1CCC3C1 (stereo not drawn) [2-Methyl-2-[3-(pyridin-4-ylsulfanyl)-propyl]-3,4,7,8,9,10-hexahydro-7,10-methano-2H-benzo[h]chromen-6-ol] | – | ≤ 5 | – | ≤ 10 | ≤ 5
